Test results from US5700906A, “Immunogenic peptide antigen corresponding to plasmodium vivax circumsporozoite protein” (New York University, priority 1987, dated 1997).
Where two headings read alike, the source gives them in different places. Where no end group is shown, it is not given here.

Assays:
monoclonal antibody 2F2 = test: Inhibition of 2F2 binding to immobilized (DRADGQPAG)2 by synthetic peptides; settings: competing peptide 25 micrograms/ml
Text: (§1) Monoclonal-antibody 2F2 from Example 5 was serially diluted in PBS-BSA (indicated in FIG. 5 by black triangles); or in PBS-BSA containing 25 micrograins/ml of synthetic peptide (NANP)3 (indicated by open triangles); or in PBS-BSA containing 25 micrograms/ml of the synthetic peptide of Example 4, i.e. (DRADGQPAG)2 (indicated by black circles).
(§2) An unrelated monoclonal-antibody 2AlO (anti-falciparum CS protein) was serially diluted in PBS-BSA (indicated by open squares). […] of each dilution were delivered to the bottom of microtiter plates which had previously been coated with a synthetic peptide (DRADGQPAG)2 saturated with 1% BSA. After 1 hour of incubation, the wells were washed with PBS-BSA in 50 microliters of ^125 I-labelled affinity-purified goat anti-mouse IgG (10^5 cpm; specific activity about 2×10^6 cpm/microgram). After an additional hour of incubation, the wells were washed with PBS-BSA and counted.

[1] = system: binding of monoclonal antibody 2F2 to immobilized P. vivax sporozoite extract; test: Inhibition of the binding of labelled monoclonal antibody 2F2 to immobilized P. vivax extracts; settings: at 0: 16,387 ± 1,085 cpm
Protocol: 100,000 cpm of 2F2 antibody labelled by ^125 I having a specific activity of about 2×10^6 cpm/microgram was diluted in PBS containing 1% BSA. The buffer also contained varying amounts of the synthetic peptide. The mixture was added to microtiter wells coated with P. vivax sporozoite extract. After one hour incubation in room temperature, the wells were washed three times with PBS containing 1% BSA and counted in the gamma counter.

[2] = system: anti-P. falciparum antibody 2AlO; test: Inhibition of binding of anti-P. falciparum antibody 2A10 to (NANP)3
Text: as §1, §2
In other similar experiments, the binding of the anti-P. falciparum antibody 2AlO to the corresponding epitope (NANP)3 was not inhibited by the synthetic peptide (DRADGQPAG)2.^1

[3] = system: binding of a monoclonal antibody to extracts of sporozoites from a New Guinea vivax malaria; test: Competition of peptide with monoclonal antibody binding to New Guinea vivax sporozoite extracts; set-up: species or system P. vivax
Text: Thus, although the P. vivax CS gene was isolated from a Brazilian strain of P. vivax, the epitope deduced from the sequence of the cloned gene appears to be present in all P. vivax CS proteins so far studied. The characterization of this gene and its encoded amino acid sequence allows synthesis of large amounts of the repetitive epitope and other antigenically active regions of the P. vivax CS protein and development of a protective vaccine using peptides corresponding to such regions.

porcine elastase = test: Elastase treatment of CS protein, reactivity with monoclonal antibodies; assay type: biochemical
Text: (c) One possible reading frame coded for an alanine-rich peptide.

monoclonal antibody 2G3 = test: Two-site immunoradiometric assay performed with monoclonal antibody 2G3 and synthetic peptides; assay type: binding
Protocol: The two synthetic peptides described in Example 7 were used in these studies. One of them was composed of the 12 amino acid sequence. H2 N-GlnAIaGlnGlyAspGlyAlaAsnAlaGlyGlnPro-COOH (12-MER) and the other was a dimer of the same sequence (24-MER). […] The assay was performed as follows:
Wells of microtiter plates (Falcon 3911) were incubated overnight at 4° C. with 50 μl of a 10 μg/ml solution in PBS of the monoclonal 2G3 anti-CS protein of P. knowlesi. The wells were washed with PBS and then incubated for 2 hours at room temperature, with PBS-Tween 20 (0.05% (w/v), and then for 3 additional hours with PBS-BSA (1% (w/v)). The synthetic peptides were diluted serially in PBS-BSA-Tween 20, and 30 μl aliquots of the dilutions were delivered to the bottom of individual wells. The plates were incubated overnight in the refrigerator, washed with PBS-BSA-Tween 20, and incubated with […] (10 ng) of ^125 I-labeled monoclonal antibody 2G3 diluted in PBS-BSA-Tween 20 (about 100,000 cpm). Controls consisted of plates coated with a non-relevant monoclonal antibody of the same isotype as 2G3.

[4] = system: binding of monoclonal antibody (2G3) to the CS protein of P. knowlesi; test: 12-MER inhibition of binding of monoclonal antibody 2G3 to the CS protein of P. knowlesi
Text: Wells of microtiter plates were coated with the monoclonal antibody 2G3 washed with Tween-20, saturated with BSA as described supra. In one series of tubes, the 12-MER was serially diluted in PBS-BSA-Tween 20. In a second series of tubes, an extract of P. knowlesi sporozoites (prepared as described by Cochrane et al., supra) was serially diluted in PBS-BSA-Tween20. Aliquots of each dilution of sporozoites were mixed with equal volumes of all dilutions of 12-MER. 30 μI of these mixtures were then added to the bottom of the 2G3-coated wells. As positive and negative controls, 30 μl aliquots of sporozoite dilutions mixed with PBS-BSA-Tween 20 were added to other wells which had been precoated with 2G3 or with a non-relevant monoclonal antibody. After overnight incubation in the refrigerator, the wells were washed and 50 μl ([…]) of ^125 I-labeled 2G3 diluted in PBS-BSA-Tween 20 were added. Following an additional incubation at room temperature for 1 hour, the wells were washed and counted in a gamma counter.

In the case of “H-(Asp-Gly-Gln-Pro-Ala-Gly-Asp-Arg-Ala)2 [(DRADGQPAG)2]”, the “inhibition of binding of 2F2 to immobilized (DRADGQPAG)2” value (monoclonal antibody 2F2) is reported as “totally inhibited”, the “Bound 125I-labeled 2F2” value ([1]; synthetic peptide 0.2 micrograms/ml) is reported as 3,146 cpm and the “Bound 125I-labeled 2F2” value ([1]; synthetic peptide 2 micrograms/ml) is reported as 2,130 cpm. The “Bound 125I-labeled 2F2” value ([1]; synthetic peptide 20 micrograms/ml) was 1,091 cpm, the “Bound 125I-labeled 2F2” value ([1]; synthetic peptide 200 micrograms/ml, mean of counts in four wells) was 842 cpm and the “inhibition of binding of 2AlO to (NANP)3” value [2] was “not inhibited”. The “competition with binding of monoclonal antibody to sporozoite extracts” value [3] was “can compete”.
For OOC-Ala Ala Pro Ala, the “inactivation of CS protein by elastase in presence of inhibitor” value (porcine elastase) was “reversed”.
With “QAQGDGANAGQP [12-MER, H2 N-GlnAIaGlnGlyAspGlyAlaAsnAlaGlyGlnPro-COOH]” the “two-site radioimmunoassay reactivity” value (monoclonal antibody 2G3; monoclonal antibody to P. knowlesi CS protein) was “did not bind”, the “Amount of radiolabeled 2G3 bound” value (monoclonal antibody 2G3; peptide 5 ug/ml) was 40 cpm and the “Amount of radiolabeled 2G3 bound” value (monoclonal antibody 2G3; peptide 50 ug/ml) was 103 cpm. The “Amount of radiolabeled 2G3 bound” value (monoclonal antibody 2G3; peptide 500 ug/ml) was 157 cpm, the “Amount of radiolabeled 2G3 bound” value (monoclonal antibody 2G3; peptide .5 ug/ml) was 0 cpm and the “inhibition of interaction of P. knowlesi CS protein with monoclonal antibody” value [4] was “inhibited, in a dose-dependent fashion”. For the same substance, the “Amount of 2G3 bound in the presence of 12-MER inhibitor” value ([4]; 10^3 sporozoites/ml, 12-MER 0.08 mg/ml, 156 cpm at 0) was 72 cpm, the “Amount of 2G3 bound in the presence of 12-MER inhibitor” value ([4]; 10^3 sporozoites/ml, 12-MER 0.6 mg/ml, 156 cpm at 0) was 0 cpm and the “Amount of 2G3 bound in the presence of 12-MER inhibitor” value ([4]; 10^3 sporozoites/ml, 12-MER 5.0 mg/ml, 156 cpm at 0) was 37 cpm. For the same substance, the “Amount of 2G3 bound in the presence of 12-MER inhibitor” value ([4]; 10^4 sporozoites/ml, 12-MER 0.08 mg/ml, 1353 cpm at 0) was 102 cpm, the “Amount of 2G3 bound in the presence of 12-MER inhibitor” value ([4]; 10^4 sporozoites/ml, 12-MER 0.6 mg/ml, 1353 cpm at 0) was 70 cpm and the “Amount of 2G3 bound in the presence of 12-MER inhibitor” value ([4]; 10^4 sporozoites/ml, 12-MER 5.0 mg/ml, 1353 cpm at 0) was 3 cpm. For the same substance, the “Amount of 2G3 bound in the presence of 12-MER inhibitor” value ([4]; 10^5 sporozoites/ml, 12-MER 0.08 mg/ml, 4390 cpm at 0) was 1221 cpm, the “Amount of 2G3 bound in the presence of 12-MER inhibitor” value ([4]; 10^5 sporozoites/ml, 12-MER 0.6 mg/ml, 4390 cpm at 0) was 781 cpm and the “Amount of 2G3 bound in the presence of 12-MER inhibitor” value ([4]; 10^5 sporozoites/ml, 12-MER 5.0 mg/ml, 4390 cpm at 0) was 361 cpm. The “Amount of 2G3 bound in the presence of 12-MER inhibitor” value ([4]; 10^6 sporozoites/ml, 12-MER 0.08 mg/ml, 5582 cpm at 0) was 3893 cpm, the “Amount of 2G3 bound in the presence of 12-MER inhibitor” value ([4]; 10^6 sporozoites/ml, 12-MER 0.6 mg/ml, 5582 cpm at 0) was 3018 cpm and the “Amount of 2G3 bound in the presence of 12-MER inhibitor” value ([4]; 10^6 sporozoites/ml, 12-MER 5.0 mg/ml, 5582 cpm at 0) was 1099 cpm. The “inhibition of interaction of P. knowlesi CS protein with monoclonal antibody” value ([4]; listed as monomer) was “compete with and specifically inhibit”.
